Values of other authors in US20250042860A1, “Process for Chemical Synthesis of Ergothioneine and Methods of Use” (NANJING NUTRABUILDING BIO-TECH CO., LTD., priority 2022, published 2025).

Details: animals and humans, even at high doses

**Q.** For ergothioneine, which “toxicity or adverse effects associated with ergothioneine administration” value is on record?
**A.** The value was “no toxicity or adverse effects”.
